Literature values in patent US6420614B1, “Process for obtaining 3′-epilutein” (Industrial Organica, S.A. DE C.V., priority 2000, dated 2002).

system: egg yolk; conditions: relative potency of zeaxanthin stereoisomers; (3R,3′R)-zeaxanthin = 100%

Going from CC1=C(/C=C/C(C)=C/C=C/C(C)=C/C=C/C=C(C)/C=C/C=C(C)/C=C/C2=C(C)C[C@@H](O)CC2(C)C)C(C)(C)C[C@H](O)C1 [(3RS, 3′SR)-zeaxanthin (racemic), (3RS, 3′SR)-zeaxanthin] to CC1=C(/C=C/C(C)=C/C=C/C(C)=C/C=C/C=C(C)/C=C/C=C(C)/C=C/C2=C(C)C[C@H](O)CC2(C)C)C(C)(C)C[C@@H](O)C1 (single isomer, unassigned) [(3S, 3′S)-zeaxanthin (enantiomer)], the “potency in pigmenting of egg yolk” value falls from 92% to 86%.

Going from CC1=C(/C=C/C(C)=C/C=C/C(C)=C/C=C/C=C(C)/C=C/C=C(C)/C=C/C2=C(C)C[C@H](O)CC2(C)C)C(C)(C)C[C@H](O)C1 [(3R, 3′S)-zeaxanthin (meso, II), (3R,3′S)-zeaxanthin] to CC1=C(/C=C/C(C)=C/C=C/C(C)=C/C=C/C=C(C)/C=C/C=C(C)/C=C/C2=C(C)C[C@@H](O)CC2(C)C)C(C)(C)C[C@H](O)C1 [(3R, 3′R)-zeaxanthin (III), (3R,3′R)-zeaxanthin], the “potency in pigmenting of egg yolk” value rises from 37% to 100%.
